Test results taken from patent US9464073B2, “Pyrimidine hydroxy amide compounds as HDAC6 selective inhibitors” (Acetylon Pharmaceuticals, Inc., priority 2014, dated 2016).
“Also recorded” adds a separate entry of the source.

Assays:
[1] = Rat pharmacokinetic studies; assay type: in vivo; settings: plasma, male SD rats; for clearance: IV 1 mg/kg; for bioavailability: PO 5 mg/kg vs IV 1 mg/kg, dose adjusted AUC
Method: Male SD rats were fasted overnight. Compounds of the invention as well as two previously known HDAC6 inhibitors, Compounds A and B were dissolved in dimethyl acetamide at 10 times the final concentration, then Solutol HS 15 (BASF) was added to a final concentration of 10%. Finally 80% saline was added and vortexed to achieve a clear solution. For the IV dosing three animals were injected via the foot dorsal vein with 1 mg/kg compound. For the PO dosing 5 mg/kg of compound was delivered by oral gavage. Blood was collected via the tail vein into K2EDTA tubes at 5 minutes, 15 minutes, 30 minutes, 1 hour, 2 hours, 4 hours, 8 hours and 24 hours after dosing. The blood was centrifuged at 2000 g for 5 minutes at 4° C. to obtain plasma. The plasma was extracted with acetonitrile and the level of compound was analyzed by LC/MS/MS. The level of compound in plasma was calculated from a standard curve in rat plasma. The IV clearance and area under the curve were calculated using WinNonLin software. The dose adjusted area under the curve for the IV and oral dosing were used to calculate the oral bioavailability. Compounds A and B, previously known HDAC6 inhibitors, are shown below (See, e.g., U.S. Pat. No. 8,614,223): […]

HDAC2 = HDAC2 (Homo sapiens (Human), UniProt Q92769); test: HDAC enzyme assay (HDAC2); assay type: biochemical
Method: (§1) Compounds for testing were diluted in DMSO to 50 fold the final concentration and a ten point three fold dilution series was made. The compounds were diluted in assay buffer (50 mM HEPES, pH 7.4, 100 mM KCl, 0.001% Tween-20, 0.05% BSA, 20 μM TCEP) to 6 fold their final concentration. The HDAC enzymes (purchased from BPS Biosciences) were diluted to 1.5 fold their final concentration in assay buffer. The tripeptide substrate and trypsin at 0.05 μM final concentration were diluted in assay buffer at 6 fold their final concentration. The final enzyme concentrations used in these assays were 3.3 ng/ml (HDAC1), 0.2 ng/ml (HDAC2), 0.08 ng/ml (HDAC3) and 2 ng/ml (HDAC6). The final substrate concentrations used were 16 μM (HDAC1), 10 μM (HDAC2), 17 μM (HDAC3) and 14 μM (HDAC6).
(§2) Five μl of compounds and 20 μl of enzyme were added to wells of a black, opaque 384 well plate in duplicate. Enzyme and compound were incubated together at room temperature for 10 minutes. Five μl of substrate was added to each well, the plate was shaken for 60 seconds and placed into a Victor 2 microtiter plate reader. The development of fluorescence was monitored for 60 min and the linear rate of the reaction was calculated. The IC50 was determined using Graph Pad Prism by a four parameter curve fit.

HDAC6 = HDAC6 (Homo sapiens (Human), UniProt Q9UBN7); test: HDAC enzyme assay (HDAC6); assay type: biochemical
Method: as §1, §2

HDAC1 = HDAC1 (Homo sapiens (Human), UniProt Q13547); test: HDAC enzyme assay (HDAC1); assay type: biochemical
Method: as §1, §2

taxol treated rats = test: Taxol induced neuropathic pain study in rats (Von Frey testing); assay type: in vivo, rat
Method: This study included a histology endpoint in addition to the von Frey testing for paw sensitivity.
Neuropathic pain is induced by a 0.5 ml/kg injection of Taxol (2 mg/kg) administered IP on days 0-12. The development of neuropathic pain is confirmed by measuring mechanical allodynia (Von Frey test) on study day 13.
Allodynic response to tactile stimulation is assessed using the Von Frey apparatus (Touch Test®).
The rat will be placed in an enclosure and positioned on a metal mesh surface, but allowed to move freely. The rats' cabins are covered with red cellophane to diminish environmental disturbances. The test begins after a cessation of exploratory behavior. The set of Von Frey monofilaments provide an approximate logarithmic scale of actual force and a linear scale of perceived intensity.
The operating principle: when the tip of a fiber of given length and diameter is pressed against the skin at right angles, the force of application increases as long as the researcher continues to advance the probe until the fiber bends. After the fiber bends, the probe continues to advance, causing the fiber to bend more, but without additional force being applied. […] The Touch Test™ Sensory Evaluator can be used on the plantar surfaces of the rat's foot. The animal indicates sensation by pulling back its paw. The minimal force needed to elevate the withdrawal reflex is considered/designated as the value of reference. In order to achieve paw withdrawal, the pressure applied is sometimes greater than 60 g, often requiring the researcher to apply enough pressure with the Von Frey filament to actually lift the paw of the naive animal. Decreases in force needed to induce withdrawal are indicative of allodynia, as the force applied is a non-painful stimulus under normal conditions.

HDAC3 = HDAC3 (Homo sapiens (Human), UniProt O15379); test: HDAC enzyme assay (HDAC3); assay type: biochemical
Method: as §1, §2

[2] = Mouse pharmacokinetic studies; assay type: in vivo; settings: male C57BL/6 mice, IV 1 mg/kg, from AUC in plasma and brain; for Kp: mouse, read-out: Mouse plasma/brain ratio
Method: Male C57BL/6 mice were fasted overnight. Compounds of the invention as well as two previously known HDAC6 inhibitors, Compounds A and B, were dissolved in dimethyl acetamide at 10 times the final concentration, then Solutol HS 15 (BASF) was added to a final concentration of 10%. Finally 80% saline was added and vortexed to achieve a clear solution. Fifteen animals were injected via the tail vein with 1 mg/kg compound. Blood was collected by retro-orbital bleed at 5 minutes, 15 minutes, 30 minutes, 1 hour, 2 hours, 4 hours, 8 hours and 24 hours after dosing. At 5 minutes, 30 minutes, 1 hour and 4 hours after dosing three animals per time point were sacrificed and brains were removed. The blood was centrifuged at 2000 g for 5 minutes at 4° C. to obtain plasma. Brain samples were homogenized in PBS. The plasma and brain homogenate were extracted with acetonitrile and the level of compound was analyzed by LC/MS/MS. The level of compound in plasma was calculated from a standard curve in rat plasma and the level in brain was calculated from a standard curve in brain homogenate. The area under the curve in plasma and brain were calculated using WinNonLin software. The brain to plasma ratio was determined using the area under the curve values for the two compartments.

Sequence of HDAC3 (O15379 whole entry): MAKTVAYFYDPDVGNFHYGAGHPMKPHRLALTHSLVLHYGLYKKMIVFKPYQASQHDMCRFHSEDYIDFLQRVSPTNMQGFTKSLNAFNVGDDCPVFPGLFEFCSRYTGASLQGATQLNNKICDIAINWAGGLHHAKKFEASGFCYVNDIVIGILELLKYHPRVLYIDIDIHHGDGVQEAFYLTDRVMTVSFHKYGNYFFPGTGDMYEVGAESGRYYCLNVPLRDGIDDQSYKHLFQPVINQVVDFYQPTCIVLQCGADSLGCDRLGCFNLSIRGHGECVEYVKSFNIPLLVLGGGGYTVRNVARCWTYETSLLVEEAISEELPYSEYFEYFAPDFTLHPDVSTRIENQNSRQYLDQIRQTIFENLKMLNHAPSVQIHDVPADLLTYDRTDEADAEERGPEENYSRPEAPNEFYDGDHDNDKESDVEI
Sequence of HDAC3 (Q9Y618 395-489 partner): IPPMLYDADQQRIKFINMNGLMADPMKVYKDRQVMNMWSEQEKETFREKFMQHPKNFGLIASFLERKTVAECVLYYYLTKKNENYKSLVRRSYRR
Sequence of HDAC6 (Q9UBN7 whole entry): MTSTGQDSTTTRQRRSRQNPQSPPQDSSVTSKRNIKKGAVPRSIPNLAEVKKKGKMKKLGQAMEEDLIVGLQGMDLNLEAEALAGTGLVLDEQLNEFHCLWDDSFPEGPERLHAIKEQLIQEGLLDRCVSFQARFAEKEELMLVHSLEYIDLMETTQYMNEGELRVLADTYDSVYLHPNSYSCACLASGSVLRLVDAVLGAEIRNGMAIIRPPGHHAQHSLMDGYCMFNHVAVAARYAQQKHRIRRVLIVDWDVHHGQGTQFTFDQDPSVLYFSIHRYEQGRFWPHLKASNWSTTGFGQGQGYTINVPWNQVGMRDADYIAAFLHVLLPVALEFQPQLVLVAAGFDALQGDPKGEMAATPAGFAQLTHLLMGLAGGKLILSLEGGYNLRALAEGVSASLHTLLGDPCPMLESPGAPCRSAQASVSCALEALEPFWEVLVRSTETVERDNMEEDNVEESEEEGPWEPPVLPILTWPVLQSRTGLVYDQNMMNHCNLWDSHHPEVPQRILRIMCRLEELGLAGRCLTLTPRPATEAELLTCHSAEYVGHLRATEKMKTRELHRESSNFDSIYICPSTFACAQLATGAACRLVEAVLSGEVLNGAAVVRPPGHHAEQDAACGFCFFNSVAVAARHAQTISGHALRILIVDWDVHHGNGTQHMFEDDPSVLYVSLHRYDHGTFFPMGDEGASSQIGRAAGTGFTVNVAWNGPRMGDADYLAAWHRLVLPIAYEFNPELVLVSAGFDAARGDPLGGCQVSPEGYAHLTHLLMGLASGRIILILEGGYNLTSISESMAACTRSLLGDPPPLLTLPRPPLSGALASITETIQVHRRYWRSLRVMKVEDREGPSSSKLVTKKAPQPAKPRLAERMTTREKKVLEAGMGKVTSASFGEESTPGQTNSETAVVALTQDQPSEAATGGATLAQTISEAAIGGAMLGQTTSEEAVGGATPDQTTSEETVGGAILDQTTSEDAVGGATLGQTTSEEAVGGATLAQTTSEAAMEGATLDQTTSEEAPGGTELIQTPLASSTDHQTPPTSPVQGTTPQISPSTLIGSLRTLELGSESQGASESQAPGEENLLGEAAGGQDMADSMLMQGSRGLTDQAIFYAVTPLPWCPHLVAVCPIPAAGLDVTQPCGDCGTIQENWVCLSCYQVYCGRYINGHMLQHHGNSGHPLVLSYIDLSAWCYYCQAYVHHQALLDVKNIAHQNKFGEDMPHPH
Sequence of HDAC1 (Q13547 whole entry): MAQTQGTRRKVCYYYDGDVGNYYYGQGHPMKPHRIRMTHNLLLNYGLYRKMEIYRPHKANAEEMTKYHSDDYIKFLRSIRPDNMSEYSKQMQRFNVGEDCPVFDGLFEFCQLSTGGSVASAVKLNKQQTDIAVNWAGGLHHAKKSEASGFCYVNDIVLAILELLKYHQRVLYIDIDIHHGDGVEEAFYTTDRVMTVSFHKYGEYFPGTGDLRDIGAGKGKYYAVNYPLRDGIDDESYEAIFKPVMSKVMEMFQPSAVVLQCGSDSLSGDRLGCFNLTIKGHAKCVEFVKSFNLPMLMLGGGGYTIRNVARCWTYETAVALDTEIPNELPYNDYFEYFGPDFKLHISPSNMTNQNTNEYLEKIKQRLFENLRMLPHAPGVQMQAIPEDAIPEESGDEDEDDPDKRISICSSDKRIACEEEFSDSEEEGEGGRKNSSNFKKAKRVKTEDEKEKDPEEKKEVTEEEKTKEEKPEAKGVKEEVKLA
Sequence of HDAC2 (Q92769 whole entry): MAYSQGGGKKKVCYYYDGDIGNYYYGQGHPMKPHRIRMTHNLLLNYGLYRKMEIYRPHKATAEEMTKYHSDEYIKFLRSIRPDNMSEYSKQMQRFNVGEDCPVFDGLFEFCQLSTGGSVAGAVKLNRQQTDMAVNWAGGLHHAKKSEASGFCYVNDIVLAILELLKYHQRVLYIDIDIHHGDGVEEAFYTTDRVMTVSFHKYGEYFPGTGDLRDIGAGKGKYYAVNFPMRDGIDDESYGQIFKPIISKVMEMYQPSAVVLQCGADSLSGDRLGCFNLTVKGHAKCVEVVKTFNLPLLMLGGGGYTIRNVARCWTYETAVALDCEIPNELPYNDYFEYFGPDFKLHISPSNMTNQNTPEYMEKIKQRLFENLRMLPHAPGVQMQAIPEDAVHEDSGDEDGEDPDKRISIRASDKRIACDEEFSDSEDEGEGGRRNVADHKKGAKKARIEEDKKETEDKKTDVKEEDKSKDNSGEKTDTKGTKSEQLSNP

With `O=C(NO)c1cnc(NC2(c3ccccc3)CCC(F)(F)CC2)nc1` [Compound 003] the clearance [1] was 61.7 mL/min/kg, the bioavailability [1] was 41.5% and the IC50 (HDAC2) was 982 nM. The IC50 (HDAC6) was 3.7 nM, the IC50 (HDAC1) was 961 nM and the “withdrawal force (Von Frey)” value (taxol treated rats; 1 mg/kg PO b.i.d., study day 15) was 58.30 ± 1.70 g. For the same compound, the “mean group withdrawal force (Von Frey)” value (taxol treated rats; study day 13 pre-dosing, last dose on day 12 (b.i.d.)) was 41.10 ± 5.88 g, the “reversal of nociception / tactile allodynia” value (taxol treated rats; taxol treated rats, 1, 3, 10 mg/kg PO b.i.d.) was “completely reversed nociception; also recorded: reduced tactile allodynia” and the IC50 (HDAC3) was 4380 nM. It also gave a Kp [2] of 0.67.

With `NCC1(CC(=O)O)CCCCC1` [gabapentin, reference compound] the “withdrawal force (Von Frey)” value (taxol treated rats; 150 mg/kg IP, 2 hours post dosing, study day 13) was 58.30 ± 1.70 g, the “withdrawal force (Von Frey)” value (taxol treated rats; 150 mg/kg IP, 2 hours post dosing, study day 14) was 60.00 ± 0.00 g and the “withdrawal force (Von Frey)” value (taxol treated rats; 150 mg/kg IP, 2 hours post dosing, study day 15) was 58.30 ± 1.70 g.

`O=C(NO)c1cnc(NC2(c3cccc(F)c3)CCCCC2)nc1` [Compound B, reference compound] showed a clearance [1] of 38.3 mL/min/kg, a bioavailability [1] of 7.9% and a Mouse plasma/brain ratio [2] of 1.28.

`O=C(NO)c1cnc(NC2(c3cccc(F)c3)CCC3(CC2)OCCO3)nc1` [Compound 004] gave an IC50 (HDAC2) of 833 nM, an IC50 (HDAC6) of 3.9 nM and an IC50 (HDAC1) of 703 nM. For the same compound, the IC50 (HDAC3) was 1820 nM.

For `O=C(NO)c1cnc(NC2(c3cc(F)cc(F)c3)CCCCC2)nc1` [Compound 001], the clearance [1] was 91.7 mL/min/kg, the bioavailability [1] was 11.1% and the IC50 (HDAC2) was 870 nM. The IC50 (HDAC6) was 2.9 nM, the IC50 (HDAC1) was 1040 nM and the IC50 (HDAC3) was 6200 nM. It also gave a Kp [2] of 2.55.

For `O=C(NO)c1cnc(NC2(c3ccccc3)CC2)nc1` [Compound A, reference compound], the clearance [1] was 100 mL/min/kg, the bioavailability [1] was 16.5% and the Mouse plasma/brain ratio [2] was 1.23.

With `O=C(NO)c1cnc(NC2(c3cc(F)ccc3F)CCOCC2)nc1` [Compound 002] the clearance [1] was 93.3 mL/min/kg, the bioavailability [1] was 18.4% and the IC50 (HDAC2) was 108 nM. The IC50 (HDAC6) was 2.4 nM, the IC50 (HDAC1) was 117 nM and the IC50 (HDAC3) was 671 nM. It also gave a Kp [2] of 0.45.
